In the assay the target is T1, P2X7 (UniProt Q99572).
T1 sequence (Q99572 1-595): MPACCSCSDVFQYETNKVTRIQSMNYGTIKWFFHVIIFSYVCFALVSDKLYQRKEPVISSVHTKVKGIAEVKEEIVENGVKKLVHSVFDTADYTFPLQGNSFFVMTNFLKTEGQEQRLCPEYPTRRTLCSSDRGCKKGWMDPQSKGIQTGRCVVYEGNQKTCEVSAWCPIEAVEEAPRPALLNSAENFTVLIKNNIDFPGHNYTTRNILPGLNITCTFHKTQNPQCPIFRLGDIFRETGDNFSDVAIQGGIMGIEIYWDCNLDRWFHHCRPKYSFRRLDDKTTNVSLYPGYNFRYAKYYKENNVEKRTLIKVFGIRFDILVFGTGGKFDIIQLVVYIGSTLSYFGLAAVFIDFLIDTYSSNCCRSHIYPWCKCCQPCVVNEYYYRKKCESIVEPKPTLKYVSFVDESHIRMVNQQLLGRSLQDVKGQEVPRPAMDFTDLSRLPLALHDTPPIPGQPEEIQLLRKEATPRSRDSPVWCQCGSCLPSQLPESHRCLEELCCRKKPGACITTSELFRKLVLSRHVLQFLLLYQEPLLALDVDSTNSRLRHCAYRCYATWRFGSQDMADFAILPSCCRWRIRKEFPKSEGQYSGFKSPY
In words: P2X7 pKi of Table 1. It is filed as cell-based. In a few lines: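 Human P2X7 in 1321N1 cells and rat P2X7 in HEK293 cells, loaded with fluo-3 for 1 hr at 37° C, then exposed to antagonist for 20 min at room temperature. BzATP agonist was used at 100 μM final (human) or 5 μM final (rat), with fluorescence read for 5 min. The response was normalized to maximal fluorescence evoked by 5 μM ionomycin.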
For orientation: pKi means the Ki on a negative log10 scale, so that one unit is a factor of ten. Read a high pKi as a small Ki. `CC(=O)Nc1ccc(Cl)c(NC(=O)C2=CNC(=O)CC2c2cccc(F)c2)c1` (stereo not drawn) [Compound 21, 4-(3-Fluoro-phenyl)-6-oxo-1,4,5,6-tetrahydro-pyridine-3-carboxylic acid(5-acetylamino-2-chloro-phenyl)-amide] registered a pKi of 6.02.

The compound `COc1cc(Br)c(NC(=O)C2=CNC(=O)CC2c2cccc(F)c2)cc1OC` (stereo not drawn) [Compound 17, 4-(3-Fluoro-phenyl)-6-oxo-1,4,5,6-tetrahydro-pyridine-3-carboxylic acid(2-bromo-4,5-dimethoxy-phenyl)-amide] displayed a pKi of 6.77.

Take `Cc1cc(F)c(OCCO)cc1NC(=O)C1=CNC(=O)C[C@H]1c1ccc(F)cc1` [Compound 141, (S)-4-(4-Fluoro-phenyl)-6-oxo-1,4,5,6-tetrahydro-pyridine-3-carboxylic acid[4-fluoro-5-(2-hydroxy-ethoxy)-2-methyl-phenyl]-amide]: the pKi was 7.285.

In turn, `COc1cc(NC(=O)C2=CNC(=O)CC2c2cccc(F)c2)c(C)cc1F` (stereo not drawn) [Compound 64, 4-(3-Fluoro-phenyl)-6-oxo-1,4,5,6-tetrahydro-pyridine-3-carboxylic acid(4-fluoro-5-methoxy-2-methyl-phenyl)-amide] returned a pKi of 8.17.

Consider `Cc1ccccc1NC(=O)C1=CNC(=O)C[C@H]1c1ccc(F)cc1` [Compound 101, (S)-4-(4-Fluoro-phenyl)-6-oxo-1,4,5,6-tetrahydro-pyridine-3-carboxylic acid o-tolylamide], for which the pKi was determined as 6.415.

`Cc1cc(Cl)c(OCCO)cc1NC(=O)C1=CNC(=O)CC1c1cccc(F)c1` (stereo not drawn) [Compound 62, 4-(3-Fluoro-phenyl)-6-oxo-1,4,5,6-tetrahydro-pyridine-3-carboxylic acid [4-chloro-5-(2-hydroxy-ethoxy)-2-methyl-phenyl]-amide]: the pKi is given as 7.595.

Turning to `Cc1c(Cl)cccc1NC(=O)C1=CNC(=O)C[C@H]1c1cccc(F)c1` [Compound 88, (S)-4-(3-Fluoro-phenyl)-6-oxo-1,4,5,6-tetrahydro-pyridine-3-carboxylic acid(3-chloro-2-methyl-phenyl)-amide], the pKi turned out to be 7.915.

`O=C1CC(c2cccc(F)c2)C(C(=O)Nc2cccc3c2CCC3)=CN1` (stereo not drawn) [Compound 66, 4-(3-Fluoro-phenyl)-6-oxo-1,4,5,6-tetrahydro-pyridine-3-carboxylic acid indan-4-ylamide] had a pKi of 6.915.

The compound `COc1cc(C)c(NC(=O)C2=CNC(=O)C[C@@H]2c2ccc(Cl)cc2)cc1OC` [Compound 132, (R)-4-(4-Chloro-phenyl)-6-oxo-1,4,5,6-tetrahydro-pyridine-3-carboxylic acid (4,5-dimethoxy-2-methyl-phenyl)-amide] showed a pKi of 6.38.

In turn, `Cc1c(C#N)cccc1NC(=O)C1=CNC(=O)C[C@H]1c1ccc(F)cc1` [Compound 115, (S)-4-(4-Fluoro-phenyl)-6-oxo-1,4,5,6-tetrahydro-pyridine-3-carboxylic acid(3-cyano-2-methyl-phenyl)-amide] gave a pKi of 5.815.

`CC(=O)c1ccc(C)c(NC(=O)C2=CNC(=O)C[C@H]2c2ccc(F)cc2)c1` [Compound 93, (S)-4-(4-Fluoro-phenyl)-6-oxo-1,4,5,6-tetrahydro-pyridine-3-carboxylic acid(5-acetyl-2-methyl-phenyl)-amide]: the negative-log Ki (pKi) was determined as 6.86.

`COc1cc(C)c(NC(=O)C2=CNC(=O)C[C@@H]2c2ccc(F)cc2)cc1OC` [Compound 41, (R)-4-(4-Fluoro-phenyl)-6-oxo-1,4,5,6-tetrahydro-pyridine-3-carboxylic acid (4,5-dimethoxy-2-methyl-phenyl)-amide]: the pKi is on record as 7.225.

`Cc1cc(C)c(Br)c(NC(=O)C2=CNC(=O)CC2c2ccc(F)cc2)c1` (stereo not drawn) [Compound 49, 4-(4-Fluoro-phenyl)-6-oxo-1,4,5,6-tetrahydro-pyridine-3-carboxylic acid(2-bromo-3,5-dimethyl-phenyl)-amide]: the pKi was found to be 7.48.

On to `O=C1CC(c2cccc(F)c2)C(C(=O)Nc2cccc3c2CCCC3)=CN1` (stereo not drawn) [Compound 53, 4-(3-Fluoro-phenyl)-6-oxo-1,4,5,6-tetrahydro-pyridine-3-carboxylic acid(5,6,7,8-tetrahydro-naphthalen-1-yl)-amide], for which the negative-log Ki (pKi) is 6.83.

With `CCN(CC)S(=O)(=O)c1ccc(Cl)c(NC(=O)C2=CNC(=O)CC2c2cccc(F)c2)c1` (stereo not drawn) [Compound 52, 4-(3-Fluoro-phenyl)-6-oxo-1,4,5,6-tetrahydro-pyridine-3-carboxylic acid(2-chloro-5-diethylsulfamoyl-phenyl)-amide], the negative-log Ki (pKi) is reported as 6.02.

For the compound `COc1cc(NC(=O)C2=CNC(=O)C[C@H]2c2cccc(F)c2)c(Br)cc1C` [Compound 33, (S)-4-(3-Fluoro-phenyl)-6-oxo-1,4,5,6-tetrahydro-pyridine-3-carboxylic acid(2-bromo-5-methoxy-4-methyl-phenyl)-amide], the pKi is recorded as 7.195.

As for `COc1cc(NC(=O)C2=CNC(=O)CC2c2ccc(F)cc2)c(C)cc1F` (stereo not drawn) [Compound 54, 4-(4-Fluoro-phenyl)-6-oxo-1,4,5,6-tetrahydro-pyridine-3-carboxylic acid(4-fluoro-5-methoxy-2-methyl-phenyl)-amide], the pKi came out at 7.02. This pKi and that of the compound before are within 0.2 log units of each other.

As for `O=C1CC(c2ccc(F)cc2)C(C(=O)Nc2cc3c(cc2Cl)OC(F)(F)O3)=CN1` (stereo not drawn) [Compound 139, 4-(4-Fluoro-phenyl)-6-oxo-1,4,5,6-tetrahydro-pyridine-3-carboxylic acid(6-chloro-2,2-difluoro-benzo[1,3]dioxol-5-yl)-amide], the pKi was 5.46.

Compound `O=C1C[C@@H](c2cccc(F)c2)C(C(=O)NCc2ccccc2Cl)=CN1` [Compound 84, (S)-4-(3-Fluoro-phenyl)-6-oxo-1,4,5,6-tetrahydro-pyridine-3-carboxylic acid 2-chloro-benzylamide] displayed a pKi of 6.365.

The compound `Cc1c(F)cccc1NC(=O)C1=CNC(=O)C[C@H]1c1ccc(F)cc1` [Compound 87, (S)-4-(4-Fluoro-phenyl)-6-oxo-1,4,5,6-tetrahydro-pyridine-3-carboxylic acid(3-fluoro-2-methyl-phenyl)-amide] yielded a negative-log Ki (pKi) of 6.63.

`COc1cc(Br)c(NC(=O)C2=CNC(=O)C[C@@H]2c2ccc(F)cc2)cc1OC` [Compound 39, (R)-4-(4-Fluoro-phenyl)-6-oxo-1,4,5,6-tetrahydro-pyridine-3-carboxylic acid(2-bromo-4,5-dimethoxy-phenyl)-amide]: the pKi was found to be 6.99.

`CCN1C=C(C(=O)Nc2cc(OC)c(OC)cc2C)[C@H](c2ccc(F)cc2)CC1=O` [Compound 144, (S)-1-Ethyl-4-(4-fluoro-phenyl)-6-oxo-1,4,5,6-tetrahydro-pyridine-3-carboxylic acid(4,5-dimethoxy-2-methyl-phenyl)-amide]: the pKi came to 7.06.

`Cc1cc(Cl)c(OCC(C)O)cc1NC(=O)C1=CNC(=O)CC1c1cccc(F)c1` (stereo not drawn) [Compound 77, 4-(3-Fluoro-phenyl)-6-oxo-1,4,5,6-tetrahydro-pyridine-3-carboxylic acid[4-chloro-5-(2-hydroxy-propoxy)-2-methyl-phenyl]-amide] gave a pKi of 7.375.

For `Cc1cc(C)c(Br)c(NC(=O)C2=CNC(=O)C[C@H]2c2ccc(F)cc2)c1` [Compound 60, (S)-4-(4-Fluoro-phenyl)-6-oxo-1,4,5,6-tetrahydro-pyridine-3-carboxylic acid(2-bromo-3,5-dimethyl-phenyl)-amide], the pKi was determined as 6.86.
